Columns and labels:
K2P9.1 (TASK-3) = target: T1, K2P9.1 (TASK-3) (Mus musculus, UniProt Q3LS21); test: Two-electrode voltage clamp, Xenopus oocytes expressing K2P9.1 (TASK-3); type: cell-based, Murine
T1 construct: expressed in transfected cells; host or cells: Xenopus oocytes
Procedure: FIG. 7 ML67-33 is a selective activator of heat- and mechanosensitive K2P channels. a-f, Exemplar I-V curves showing the effect of ML67-33 on a, K2P10.1 (TREK-2), b, K2P4.1 (TRAAK), c, K2P3.1 (TASK-1), d, K2P9.1 (TASK-3), e, K2P5.1 (TASK-2), and f, K2P18.1 (TRESK) measured in Xenopus oocytes in 2 mM [K^+]o pH 7.4. Currents were elicited by a voltage ramp from −150 to 50 mV, from a holding potential of −80 mV. g, Quantification of the effect of ML67-33 on the indicated channels. Data (mean±s.e., n≧6, N≧2) was normalized to basal channel activity and fitted to the Hill equation. […] Error bars indicate s.e., n≧6, N≧2.
(§1) Murine K2P channels were cloned into pGEMHE/pMO {Bagriantsev, 2011}, IRES-GFP (Invitrogen), or pYES2-MET25 (high copy 2μ, URA3) {Minor, 1999} for expression in oocytes, HEK-293T cells, and yeast, respectively, using standard molecular biology procedures, and verified by DNA sequencing.
Two-electrode voltage clamp recordings were performed from defolliculated stage V-VI Xenopus oocytes 24-48 hours after injection with 0.015-6.0 ng cRNA, using microelectrodes (0.3-3.0 MΩ) filled with 3M KCl. Data was acquired using the GeneClamp 500B (MDS Analytical Technologies) amplifier controlled by the pClamp software (Molecular Devices), and digitized at 1 kHz using Digidata 1332A (MDS Analytical Technologies). Recording solutions (mM): 2K (96 NaCl, 2 KCl, 1.8 CaCl2, 2 MgCl2), 90K (90 KCl, 8 NaCl, 1.8 CaCl2, 2 MgCl2), were buffered 5 mM HEPES pH 7.4. For K2P recordings, currents we elicited by a 1 second long ramp from −150 to +50 mV from a holding potential of −80 mV (2K), or −100 to +50 mV from a holding potential of 0 mV (90K). For KCNQ2 recordings, currents were elicited by a step protocol from −120 to 60 mV, in 20 mV increments, from a holding potential of −80 mV. Patch-clamp recordings from HEK-293T cells were performed using microelectrodes (2-3 MΩ) filled with 1M KCl. Data was acquired using the Axopatch 200B amplifier controlled by pClamp software, and digitized at 1 kHz using Digidata 1332A. […]

K2P2.1 (TREK-1) = target: T2, K2P2.1 (TREK-1) (Mus musculus, UniProt P97438); test: Whole cell patch clamp of HEK-293T cells expressing K2P2.1 (TREK-1); type: cell-based, Murine
T2 construct: expressed in transfected cells; host or cells: Xenopus oocytes (cRNA injection, pGEMHE/pMO)
T2 sequence (P97438 1-411 isoform P97438-2): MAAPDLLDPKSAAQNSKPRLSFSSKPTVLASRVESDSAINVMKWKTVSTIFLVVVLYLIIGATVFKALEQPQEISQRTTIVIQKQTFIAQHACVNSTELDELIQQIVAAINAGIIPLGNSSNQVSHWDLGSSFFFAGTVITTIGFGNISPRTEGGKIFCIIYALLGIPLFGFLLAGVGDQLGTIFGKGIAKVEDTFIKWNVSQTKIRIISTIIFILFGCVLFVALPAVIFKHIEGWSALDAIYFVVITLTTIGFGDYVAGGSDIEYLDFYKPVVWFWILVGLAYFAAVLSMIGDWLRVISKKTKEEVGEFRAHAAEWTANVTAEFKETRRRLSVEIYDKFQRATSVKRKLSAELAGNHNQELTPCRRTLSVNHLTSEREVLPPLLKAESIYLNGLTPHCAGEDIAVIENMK
Procedure: as §1
Two-electrode voltage clamp recordings were performed from defolliculated stage V-VI Xenopus oocytes 24-48 hours after injection with 0.015-6.0 ng cRNA, using microelectrodes (0.3-3.0 MΩ) filled with 3M KCl. Data was acquired using the GeneClamp 500B (MDS Analytical Technologies) amplifier controlled by the pClamp software (Molecular Devices), and digitized at 1 kHz using Digidata 1332A (MDS Analytical Technologies). Recording solutions (mM): 2K (96 NaCl, 2 KCl, 1.8 CaCl2, 2 MgCl2), 90K (90 KCl, 8 NaCl, 1.8 CaCl2, 2 MgCl2), were buffered 5 mM HEPES pH 7.4. For K2P recordings, currents we elicited by a 1 second long ramp from −150 to +50 mV from a holding potential of −80 mV (2K), or −100 to +50 mV from a holding potential of 0 mV (90K). For KCNQ2 recordings, currents were elicited by a step protocol from −120 to 60 mV, in 20 mV increments, from a holding potential of −80 mV. Patch-clamp recordings from HEK-293T cells were performed using microelectrodes (2-3 MΩ) filled with 1M KCl. Data was acquired using the Axopatch 200B amplifier controlled by pClamp software, and digitized at 1 kHz using Digidata 1332A. Recording solutions (mM): intracellular (145 KCl, 5 EGTA, 3 MgCl2,) extracellular (150 NaCl, 5 KCl, 3 MgCl2, 1 CaCl2) were buffered with 5 mM HEPES pH 7.2 and 7.4, respectively. Currents were elicited by a 1 second long ramp from −150 to +50 mV from a holding potential of −80 mV. Data were fitted with a modified Hill's equation: I=Imin+(Imax−Imin)/(1+10^((Log EC50−Log [C])*H)), where Imax and Imin are maximal and minimal current values, respectively, EC50 is a half-maximal effective concentration of the compound, and H is the Hill coefficient.

T1 sequence (Q3LS21 whole entry): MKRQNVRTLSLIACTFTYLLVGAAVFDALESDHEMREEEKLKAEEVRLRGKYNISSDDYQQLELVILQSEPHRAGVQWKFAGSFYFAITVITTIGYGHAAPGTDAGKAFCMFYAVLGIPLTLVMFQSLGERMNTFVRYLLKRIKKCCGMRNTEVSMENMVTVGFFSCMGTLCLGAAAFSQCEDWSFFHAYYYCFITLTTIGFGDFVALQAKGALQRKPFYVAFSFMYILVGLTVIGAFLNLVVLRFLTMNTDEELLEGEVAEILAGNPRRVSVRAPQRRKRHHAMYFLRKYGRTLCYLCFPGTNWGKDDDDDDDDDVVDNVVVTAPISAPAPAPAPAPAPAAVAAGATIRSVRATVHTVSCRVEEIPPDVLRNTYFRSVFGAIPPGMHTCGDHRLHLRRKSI

## CC1(C)c2cc(Cl)ccc2N(CCc2nnn[nH]2)c2ccc(Cl)cc21 [ML67-33, 2,7-dichloro-9,9-dimethyl-10-[2-(1H-tetrazol-5-yl)ethyl]acridine]
K2P9.1 (TASK-3); applied at 100 μM
  functional effect (in words): little or no functional effects
K2P9.1 (TASK-3); at 100 μM (FIG. 7 legend)
  Emax at 100 μM: 2.0±0.1
K2P9.1 (TASK-3); at 150 μM
  Emax (fold) at 150 μM: 2.1 ± 0.4 at 150 μM fold
K2P2.1 (TREK-1); HEK-293T cells, whole cell patch clamp, at 100 μM per FIG. 4 legend
  Emax (fold): 11.4±1.1 fold
K2P2.1 (TREK-1); HEK-293T cells, whole cell patch clamp, marked * in Table 1
  EC50: 9.7 ± 1.2 µM
K2P2.1 (TREK-1); whole-cell, HEK-293T, 0 mV
  time of half-maximal activation (t1/2act): 4.1 ± 0.5 s
  time of return to baseline following washout (t1/2wash): 3.9 ± 0.5 s
